Results on 13 molecules are retold here after patent publication US11739098B2 (BRISTOL-MYERS SQUIBB COMPANY, priority 2017, dated 2023).

The structures appear in SMILES notation.

Format in all cases: cell-based
In one experiment the target is T1, human TLR7 (Homo sapiens, UniProt Q9NYK1).
T1 construct: host or cells: HEK-Blue cells (HEK293-derived reporter line)
T1 sequence (Q9NYK1 27-1049): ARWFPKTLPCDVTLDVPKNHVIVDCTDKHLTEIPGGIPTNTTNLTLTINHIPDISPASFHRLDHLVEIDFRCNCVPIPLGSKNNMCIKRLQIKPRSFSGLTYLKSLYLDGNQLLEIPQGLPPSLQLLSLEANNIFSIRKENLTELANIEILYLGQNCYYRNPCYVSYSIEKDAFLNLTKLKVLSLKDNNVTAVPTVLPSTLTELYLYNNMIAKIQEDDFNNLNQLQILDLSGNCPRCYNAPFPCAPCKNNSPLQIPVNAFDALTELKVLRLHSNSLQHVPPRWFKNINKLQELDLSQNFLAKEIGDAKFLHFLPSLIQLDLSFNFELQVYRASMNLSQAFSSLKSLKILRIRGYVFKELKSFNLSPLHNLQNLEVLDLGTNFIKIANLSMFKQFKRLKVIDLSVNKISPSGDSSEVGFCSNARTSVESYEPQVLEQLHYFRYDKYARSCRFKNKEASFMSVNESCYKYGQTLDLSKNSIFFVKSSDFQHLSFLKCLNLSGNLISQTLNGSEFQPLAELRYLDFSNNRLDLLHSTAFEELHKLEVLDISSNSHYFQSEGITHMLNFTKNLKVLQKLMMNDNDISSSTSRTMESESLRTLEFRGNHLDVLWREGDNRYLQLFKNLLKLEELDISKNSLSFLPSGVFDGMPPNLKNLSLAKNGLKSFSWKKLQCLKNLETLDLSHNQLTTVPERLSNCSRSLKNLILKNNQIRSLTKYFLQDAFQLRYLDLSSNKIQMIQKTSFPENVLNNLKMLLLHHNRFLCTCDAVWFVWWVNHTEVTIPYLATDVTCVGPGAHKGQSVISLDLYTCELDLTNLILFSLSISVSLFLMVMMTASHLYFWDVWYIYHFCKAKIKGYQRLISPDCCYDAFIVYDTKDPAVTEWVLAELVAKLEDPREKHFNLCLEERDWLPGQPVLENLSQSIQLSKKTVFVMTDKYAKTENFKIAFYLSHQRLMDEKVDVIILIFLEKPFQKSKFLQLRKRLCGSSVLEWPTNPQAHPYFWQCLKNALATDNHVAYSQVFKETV
The experiment is described as follows: TLR7 inhibition reporter assay (HEK-Blue cells, SEAP reporter, gardiquimod stimulation). The note with it: HEK-Blue cells overexpressing human TLR7, SEAP reporter, gardiquimod 7.5 μM. In a few lines:
(§1)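 HEK-Blue cells overexpressing the receptor, with NF-κB/AP-1-driven SEAP, were pre-treated 30 min at room temperature with compound (0.05 nM–50 μM), then stimulated with gardiquimod 7.5 μM (TLR7), R848 15.9 μM (TLR8) or ODN2006 5 nM (TLR9). SEAP was read after 22 h at 37 °C as percent inhibition.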

The next experiment deals with T2, human TLR8 (Homo sapiens, UniProt Q9NR97).
T2 construct: host or cells: HEK-Blue cells (HEK293-derived reporter line)
T2 sequence (Q9NR97 27-1041): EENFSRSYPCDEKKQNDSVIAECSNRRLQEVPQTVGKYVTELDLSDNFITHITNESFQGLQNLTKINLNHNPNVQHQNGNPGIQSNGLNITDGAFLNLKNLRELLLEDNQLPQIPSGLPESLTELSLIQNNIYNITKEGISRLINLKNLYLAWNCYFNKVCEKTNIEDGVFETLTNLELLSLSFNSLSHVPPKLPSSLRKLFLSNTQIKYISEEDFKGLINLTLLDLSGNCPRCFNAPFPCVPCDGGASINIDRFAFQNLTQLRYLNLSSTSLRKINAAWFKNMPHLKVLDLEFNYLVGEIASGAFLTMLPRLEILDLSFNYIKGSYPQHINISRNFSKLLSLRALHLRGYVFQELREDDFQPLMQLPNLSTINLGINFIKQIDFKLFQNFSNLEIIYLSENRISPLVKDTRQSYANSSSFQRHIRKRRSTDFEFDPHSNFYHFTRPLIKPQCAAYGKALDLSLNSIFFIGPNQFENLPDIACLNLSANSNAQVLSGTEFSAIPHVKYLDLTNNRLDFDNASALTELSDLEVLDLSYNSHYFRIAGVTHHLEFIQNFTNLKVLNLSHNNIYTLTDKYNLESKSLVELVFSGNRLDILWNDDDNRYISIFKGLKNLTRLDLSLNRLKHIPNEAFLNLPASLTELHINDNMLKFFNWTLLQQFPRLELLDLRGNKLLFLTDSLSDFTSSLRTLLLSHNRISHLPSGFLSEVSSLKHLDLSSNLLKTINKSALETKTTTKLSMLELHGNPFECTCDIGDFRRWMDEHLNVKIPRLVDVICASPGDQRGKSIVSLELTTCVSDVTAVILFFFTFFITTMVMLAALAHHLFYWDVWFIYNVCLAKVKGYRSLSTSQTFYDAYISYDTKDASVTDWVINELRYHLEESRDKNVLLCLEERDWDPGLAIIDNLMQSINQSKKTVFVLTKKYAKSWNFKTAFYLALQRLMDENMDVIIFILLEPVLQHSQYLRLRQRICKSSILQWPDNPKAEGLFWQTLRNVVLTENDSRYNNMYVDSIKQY
As to the kind of experiment: TLR8 inhibition reporter assay (HEK-Blue cells, SEAP reporter, R848 stimulation). Conditions: HEK-Blue cells overexpressing human TLR8, SEAP reporter, R848 15.9 μM. In outline:
as §1

A further experiment deals with T3, human TLR9 (Homo sapiens, UniProt Q9NR96).
T3 construct: host or cells: HEK-Blue cells (HEK293-derived reporter line)
T3 sequence (Q9NR96 26-1032): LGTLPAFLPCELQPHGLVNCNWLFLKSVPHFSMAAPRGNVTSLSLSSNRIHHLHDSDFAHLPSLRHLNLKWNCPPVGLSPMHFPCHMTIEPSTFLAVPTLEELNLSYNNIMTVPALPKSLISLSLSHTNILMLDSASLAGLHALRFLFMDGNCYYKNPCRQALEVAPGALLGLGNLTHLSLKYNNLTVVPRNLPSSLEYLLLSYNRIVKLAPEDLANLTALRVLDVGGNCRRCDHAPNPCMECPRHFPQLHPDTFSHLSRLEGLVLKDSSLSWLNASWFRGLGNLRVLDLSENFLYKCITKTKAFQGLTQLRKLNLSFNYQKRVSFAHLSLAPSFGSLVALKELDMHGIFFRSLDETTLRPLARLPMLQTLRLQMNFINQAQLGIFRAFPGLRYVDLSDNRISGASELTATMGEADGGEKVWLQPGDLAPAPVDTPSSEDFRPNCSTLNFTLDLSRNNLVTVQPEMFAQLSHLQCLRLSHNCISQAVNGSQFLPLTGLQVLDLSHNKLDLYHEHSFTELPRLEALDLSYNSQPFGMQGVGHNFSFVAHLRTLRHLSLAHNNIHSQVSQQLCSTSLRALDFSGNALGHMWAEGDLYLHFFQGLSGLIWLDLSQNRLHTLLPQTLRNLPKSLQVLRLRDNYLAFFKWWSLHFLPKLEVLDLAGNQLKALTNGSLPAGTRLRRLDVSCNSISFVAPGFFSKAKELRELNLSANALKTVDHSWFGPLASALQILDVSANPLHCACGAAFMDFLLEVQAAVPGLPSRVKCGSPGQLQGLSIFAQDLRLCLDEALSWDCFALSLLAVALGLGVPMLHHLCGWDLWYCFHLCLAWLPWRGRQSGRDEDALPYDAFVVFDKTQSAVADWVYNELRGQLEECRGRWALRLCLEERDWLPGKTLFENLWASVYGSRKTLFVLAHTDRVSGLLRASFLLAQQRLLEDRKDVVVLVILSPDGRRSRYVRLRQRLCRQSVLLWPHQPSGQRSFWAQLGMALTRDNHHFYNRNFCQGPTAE
The experiment is described as follows: TLR9 inhibition reporter assay (HEK-Blue cells, SEAP reporter, ODN2006 stimulation). Conditions: HEK-Blue cells overexpressing human TLR9, SEAP reporter, ODN2006 5 nM. In outline: as §1
A general note: A reporter such as luciferase makes a cellular process visible.

As to `CCc1c(-c2ccnc3[nH]ncc23)[nH]c2ccc(C3CCN(Cc4c(C)noc4C)CC3)cc12` [Example 893, 4-((4-(3-ethyl-2-(1H-pyrazolo[3,4-b]pyridin-4-yl)-1H-indol-5-yl)piperidin-1-yl)methyl)-3,5-dimethylisoxazole], the values for the IC50 on human TLR7, at human TLR8 and against human TLR9 were 100 to 1000 nM, less than 100 nM and 1000 to 50000 nM, respectively.

Turning to `CC(C)c1c(-c2ccc3nc(N)cn3c2)[nH]c2ccc(C3CCNCC3)cc12` [Example 116, 6-(3-isopropyl-5-(piperidin-4-yl)-1H-indol-2-yl)imidazo[1,2-a]pyridin-2-amine], the IC50 was in the range of 100 to 1000 nM at human TLR7, 100 to 1000 nM against human TLR8 and 1000 to 50000 nM against human TLR9.

As to `CC(C)c1c(-c2ccnc3[nH]c(=O)[nH]c23)[nH]c2ccc(C3CCNCC3)cc12` [Example 57, 7-(3-isopropyl-5-(piperidin-4-yl)-1H-indol-2-yl)-1,3-dihydro-2H-imidazo[4,5-b]pyridin-2-one], the results for the IC50 on human TLR7, at human TLR8 and at human TLR9 were 100 to 1000 nM, 1000 to 50000 nM and 1000 to 50000 nM, respectively.

In the case of `Cc1cc(-c2[nH]c3ccc(C4CCN(C(=O)CCN5CC(C)(C)OC(C)(C)C5)CC4)cc3c2C(C)C)cn2nnnc12` [Example 621, 1-(4-(3-isopropyl-2-(8-methyltetrazolo[1,5-a]pyridin-6-yl)-1H-indol-5-yl)piperidin-1-yl)-3-(2,2,6,6-tetramethylmorpholino)propan-1-one], the IC50 at human TLR7 was less than 100 nM; on human TLR8, less than 100 nM; on human TLR9, 1000 to 50000 nM.

On to `Cc1cc(-c2[nH]c3ccc(C4CCNCC4)cc3c2C(C)C)cn2nncc12` [Example 70, 6-(3-isopropyl-5-(piperidin-4-yl)-1H-indol-2-yl)-4-methyl-[1,2,3]triazolo[1,5-a]pyridine], for which the IC50 against human TLR7 was 100 to 1000 nM; on human TLR8, 100 to 1000 nM; against human TLR9 it was 1000 to 50000 nM.

With `Cc1nc2cc(-c3[nH]c4ccc(C5CCN(C(=O)C[C@H](C)O)CC5)cc4c3C(C)C)ccn2n1` [Example 602, (S)-3-hydroxy-1-(4-(3-isopropyl-2-(2-methyl-[1,2,4]triazolo[1,5-a]pyridin-7-yl)-1H-indol-5-yl)piperidin-1-yl)butan-1-one], the IC50 is less than 100 nM against human TLR7, greater than 3130 nM on human TLR8 and greater than 50000 nM against human TLR9.

Take `COc1cc(-c2[nH]c3ccc(C4CCNCC4)cc3c2C(C)C)cc2nc(C)cn12` [Example 162, 7-(3-isopropyl-5-(piperidin-4-yl)-1H-indol-2-yl)-5-methoxy-2-methylimidazo[1,2-a]pyridine]: the IC50 against human TLR7 was less than 100 nM; on human TLR8 it was 100 to 1000 nM; against human TLR9, 100 to 1000 nM.

Take `Cc1cc(-c2[nH]c3ccc(C4CCN(CC(=O)N(C)C)CC4)cc3c2C(C)C)c2ccccc2n1` [Example 327, 2-(4-(3-isopropyl-2-(2-methylquinolin-4-yl)-1H-indol-5-yl)piperidin-1-yl)-N,N-dimethylacetamide]: the IC50 against human TLR7 is less than 100 nM; on human TLR8 it was less than 100 nM; on human TLR9, 1000 to 50000 nM.

On to `CNC(=O)CN1CCC(c2ccc3[nH]c(-c4ccn5nc(C)cc5c4)c(C(C)C)c3c2)CC1` [Example 322, 2-(4-(3-isopropyl-2-(2-methylpyrazolo[1,5-a]pyridin-5-yl)-1H-indol-5-yl)piperidin-1-yl)-N-methylacetamide], for which the IC50 against human TLR7 lay within 100 to 1000 nM; against human TLR8, 1000 to 50000 nM; against human TLR9, 1000 to 50000 nM.

With `Cc1ccc(-c2[nH]c3ccc(C4CCN(C(=O)CN(C)C)CC4)cc3c2C(C)C)c2ncnn12` [Example 516, 2-(dimethylamino)-1-(4-(3-isopropyl-2-(5-methyl-[1,2,4]triazolo[1,5-a]pyridin-8-yl)-1H-indol-5-yl)piperidin-1-yl)ethan-1-one], the IC50 at human TLR7 is less than 100 nM; against human TLR8, less than 100 nM; on human TLR9, 1000 to 50000 nM.

On to `CC(C)c1c(-c2ccnc3[nH]ncc23)[nH]c2ccc(C3CCNCC3F)cc12` (stereo not drawn) [Example 171, 4-(5-(3-fluoropiperidin-4-yl)-3-isopropyl-1H-indol-2-yl)-1H-pyrazolo[3,4-b]pyridine], for which the IC50 against human TLR7 was less than 100 nM; against human TLR8, less than 100 nM; at human TLR9, 1000 to 50000 nM.

Turning to `CCc1c(-c2ccnc3[nH]ncc23)[nH]c2ccc(C3CCN(Cc4cc(C)n[nH]4)CC3)cc12` [Example 900, 4-(3-ethyl-5-(1-((3-methyl-1H-pyrazol-5-yl)methyl)piperidin-4-yl)-1H-indol-2-yl)-1H-pyrazolo[3,4-b]pyridine], the IC50 on human TLR7 is 100 to 1000 nM; on human TLR8, less than 100 nM; on human TLR9, 1000 to 50000 nM.

Turning to `Cc1cc2nnnn2cc1-c1[nH]c2ccc(C3CCNCC3)cc2c1C(C)C` [Example 76, 6-(3-isopropyl-5-(piperidin-4-yl)-1H-indol-2-yl)-7-methyltetrazolo[1,5-a]pyridine], the IC50 at human TLR7 was less than 100 nM; on human TLR8 it was less than 100 nM; on human TLR9, 1000 to 50000 nM.

The IC50 is the concentration at which inhibition is half-maximal. Read a low IC50 as greater potency in that assay.
